This is an account of results in patent US9469652B2, “ERK inhibitors” (Eli Lilly and Company, priority 2014, dated 2016).

In one test the target is T1, ERK1 (Homo sapiens, UniProt P27361).
T1 construct: purchased Invitrogen PR5254B
Briefly: ERK1 Kinase Assay (TR-FRET). Format: biochemical. To be noted: Abs_IC50, ATP 10 μM, GFP-ATF2 substrate; ±0.20, n=7. Here is the method: The purpose of this assay is to measure the ability of compounds to inhibit ERK1 kinase activity. Perform the ERK1 kinase assay in vitro using a TR-FRET assay. Start reactions (12.5 μL) by adding 5 μL of ERK1 enzyme (Invitrogen, #PR5254B, final concentration 100 ng/mL) plus substrate GFP-ATF2 (Invitrogen, #PV4445, final concentration 0.2 μM), 5 μL of ATP solution (Invitrogen, #PV3227, final concentration 10 μM) prepared in kinase buffer (50 mM Hepes pH 7.4, 5 mM MgCl2, 0.1 mM EGTA, 0.01% Triton X-100, 1 mM DTT) and 2.5 μL of testing compounds in DMSO solution (final 4%, v/v) in a 384-well PROXIPLATE™ (Perkin Elmer, #GRN6260). Incubate the reaction mixture at room temperature for 60 minutes. Stop the reaction by addition of 12.5 μL of stop buffer (10 mM EDTA, 2 nM Tb-anti-pATF2 (pThr71) antibody, Invitrogen, #PV4448) in TR-FRET dilution buffer (Invitrogen, #PV3574). Incubate the plates at room temperature for an additional 60 minutes and read on an ENVISION® (PerkinElmer) plate reader at the excitation wavelength 340 nm Calculate the TR-FRET ratio by dividing the GFP acceptor emission signal (at 520 nm) by the Tb donor emission signal (at 495 nm). Calculate percent inhibition using compound treated wells relative to on-plate Max (DMSO control) and Min (No enzyme added) control wells TR-FRET ratio data {% inhibition=100−[(test compound−median Min)/(median Max−median Min)×100]}. […]
On the technique in general: In TR-FRET formats the signal depends on donor and acceptor labels being close together.

For test [1], the system named is human colorectal cancer cells COLO-205. Briefly: Xenograft tumor model COLO-205. In kind it is in vivo, female athymic nude mice. The settings on record: oral gavage; for Delta T/C % or Regr %: negative = regression. Here is the method:
The purpose of this assay is to measure reduction in tumor volume in response to test compound administration. Expand human colorectal cancer cells HCT116 (ATCC, # CCL-247) in culture, harvest and inject 5×10e^6 cells in 200 μL of 1:1 HBSS+matrigel solution subcutaneously on to the rear right flank of female athymic nude mice (22-25 g, Harlan Laboratories). Expand human pancreatic cancer cells MIA PACA-2 (ATCC, # CRL-1420) or human non-small cell lung cancer cells CALU-6 (ATCC, #HTB-56) or human colorectal cancer cells COLO-205 (ATCC, #CCL-222) in culture, harvest and inject 5×10e^6 cells in 200 μL of 1:1 HBSS+matrigel solution subcutaneously on to the rear right flank of female athymic nude mice (22-25 g, Harlan Laboratories). Measure tumor growth and body weight twice per week beginning the seventh day after the implantation. When tumor sizes reach 200-400 mm^3, randomize animals and group into groups of eight to ten animals. Prepare test compound in an appropriate vehicle (vehicle: 1% HEC/0.25% Tween 80/0.05% Antifoam) and administer by oral gavage for 14 to 21 days. Tumor response is determined by tumor volume measurement performed twice a week during the course of treatment. Body weight is taken as a general measure of toxicity.
A compound within the scope of invention is tested in this assay run substantially as above.

A further test has as its target T2, ERK2 (Homo sapiens, UniProt P28482).
T2 construct: purchased Invitrogen PV3595B
Briefly: ERK2 Kinase Assay (TR-FRET). In kind it is biochemical. The settings on record: Abs_IC50, ATP 10 μM, GFP-ATF2 substrate; ±0.24, n=7. Here is the method:
The purpose of this assay is to measure the ability of compounds to inhibit ERK2 kinase activity. Perform the ERK2 kinase assay in vitro using a TR-FRET assay. Start all reactions (12.5 μL) by adding 5 μL of ERK2 enzyme (Invitrogen, #PV3595B, final conc 50 ng/mL) plus substrate GFP-ATF2 (Invitrogen, #PV4445, final conc 0.2 μM), 5 μL of ATP solution (Invitrogen, #PV3227, final conc 10 μM) prepared in kinase buffer (50 mM Hepes pH 7.4, 5 mM MgCl2, 0.1 mM EGTA, 0.01% Triton X-100, 1 mM DTT) and 2.5 μL of testing compounds in DMSO solution (final 4%, v/v) in a 384-well PROXIPLATE™ (Perkin Elmer, #GRN6260). Incubate reactions at room temperature for 60 minutes. Stop reactions by addition of 12.5 μL of stop buffer (10 mM EDTA, 2 nM Tb-anti-pATF2 (pThr71) antibody, Invitrogen, #PV4448) in TR-FRET dilution buffer (Invitrogen, #PV3574). Incubate the plates at room temperature for an additional 60 minutes and read ON ENVISION® (PerkinElmer) plate reader at the excitation wavelength of 340 nm Calculate a TR-FRET ratio by dividing the GFP acceptor emission signal (at 520 nm) by the Tb donor emission signal (at 495 nm). Calculate percent inhibition using compound wells relative to on-plate Max (DMSO control) and Min (No enzyme added) control wells TR-FRET ratio data {% inhibition=100−[(test compound−median Min)/(median Max−median Min)×100]}. […]

As a reminder, the IC50 is the point on the concentration scale where inhibition reaches its midpoint. Lower therefore signals greater potency.

T1 sequence (P27361 whole entry): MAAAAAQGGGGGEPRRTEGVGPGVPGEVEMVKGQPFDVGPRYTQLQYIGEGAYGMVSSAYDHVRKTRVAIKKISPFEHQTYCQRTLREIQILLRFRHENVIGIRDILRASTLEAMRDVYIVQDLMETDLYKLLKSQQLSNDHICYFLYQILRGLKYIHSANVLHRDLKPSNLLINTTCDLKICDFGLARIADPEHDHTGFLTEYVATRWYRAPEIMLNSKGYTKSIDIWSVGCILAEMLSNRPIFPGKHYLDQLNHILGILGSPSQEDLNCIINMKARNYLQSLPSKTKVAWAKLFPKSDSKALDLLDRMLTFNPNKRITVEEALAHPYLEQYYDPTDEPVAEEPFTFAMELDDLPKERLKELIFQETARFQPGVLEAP
T2 sequence (P28482 whole entry): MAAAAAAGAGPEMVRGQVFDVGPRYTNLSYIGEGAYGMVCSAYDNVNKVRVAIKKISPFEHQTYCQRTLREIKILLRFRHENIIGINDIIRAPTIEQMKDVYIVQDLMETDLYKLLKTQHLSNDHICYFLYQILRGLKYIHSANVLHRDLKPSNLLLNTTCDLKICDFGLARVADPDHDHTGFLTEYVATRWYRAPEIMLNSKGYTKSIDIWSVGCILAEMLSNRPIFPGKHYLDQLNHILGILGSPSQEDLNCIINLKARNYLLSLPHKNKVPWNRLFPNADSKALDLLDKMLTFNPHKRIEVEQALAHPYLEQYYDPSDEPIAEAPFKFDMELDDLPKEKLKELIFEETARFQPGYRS

On to `Cn1nccc1Nc1nccc(-c2cc3c(s2)C(C)(C)N(CCN2CCOCC2)C3=O)n1` [Example 1, 6,6-Dimethyl-2-{2-[(1-methyl-1H-pyrazol-5-yl)amino]pyrimidin-4-yl}-5-[2-(morpholin-4-yl)ethyl]-5,6-dihydro-4H-thieno[2,3-c]pyrrol-4-one], for which the figures for the 50% inhibitory concentration (IC50) against ERK1 and against ERK2 were 4.86 nM and 5.24 nM, respectively. Moreover, the TGI % in test [1] (12.5 mg/kg QD) worked out at 119%; in test [1] (25 mg/kg QD), 132%; in test [1] (100 mg/kg QD), 176%. Moreover, the “Delta T/C % or Regr %” value in test [1] (12.5 mg/kg QD) is listed as −19%; in test [1] (25 mg/kg QD), −32%; in test [1] (100 mg/kg QD) it was −76%.
